According to patent US8278344B2, “Heterocyclic inhibitors of necroptosis” (The Brigham and Women's Hospital, Inc., priority 2007, dated 2012):

Assays:
[1] = system: FADD-deficient variant of human Jurkat T cells; test: Necroptosis inhibition in FADD-deficient Jurkat T cells treated with TNF-α, ATP-based viability; assay type: cell-based; settings: for EC50: Jurkat, 10 ng/mL human TNF-α, 24 hours; for necroptosis inhibitory activity in words: TNF-α treated FADD-deficient Jurkat T cells
Description: Stock solutions (30 mM) in DMSO were initially prepared and then diluted with DMSO to give testing solutions, which were added to each test well. The final DMSO concentration was 0.5%. Eleven compound test concentrations (0.030-100 μM) were used. Each concentration was done in duplicate.
Cell viability assessments were performed using a commercial luminescent ATP-based assay kit (CellTiter-Glo, Promega, Madison, Wis.) according to the manufacturer's instructions. Briefly, 40 μL of the cell lysis/ATP detection reagent was added to each well. Plates were incubated on a rocking platform for 10 minutes at room temperature and luminescence was measured using a Wallac Victor 3 plate-reader (Perkin Elmer, Wellesley, Mass.). Cell viability was expressed as a ratio of the signal in the well treated with TNF-α and compound to the signal in the well treated with compound alone. […] EC50 values were calculated using nonlinear regression analysis of sigmoid dose-response (variable slope) curves from plots of log[I] verses viability values.

[2] = Microsome stability in pooled mouse liver microsomes; assay type: in vitro ADME; settings: 3 μM compound, 0.5 mg/mL microsome protein, 1 mM NADPH; for microsomal CLint at 3 μM: in vitro intrinsic clearance, N=3, read-out: CLint (μL/minutes/mg protein)
Description: Microsome stability was determined in pooled mouse liver microsomes. Test compound (3 μM final concentration) along with 0.5 mg/mL microsome protein and 1 mM NADPH was incubated for 0, 5, 15, 30 and 60 minutes. Incubation of test compound and microsomes in the absence of NADPH served as a negative control. The samples were quenched with methanol and centrifuged for 20 minutes at 2500 rpm to precipitate proteins. Sample supernatants were analyzed (N=3) by LC/MS. The In peak area ratio (compound peak area/internal standard peak area) was plotted against time and the slope of the line determined to give the elimination rate constant [k=(−1)(slope)]. The half life (t1/2 in minutes), and the in vitro intrinsic clearance (CLint in μL/min/mg protein) were calculated according to the following equations, where V=incubation volume in μL/mg protein: […]

[3] = Table 2, Formula (I-a), standard deviation <10%

Compound | EC50 ([1]; Table 5, pyrrole compounds) | EC50 [1, 3] | further results
Cn1cc(C#N)cc1C(=O)NCc1c(F)cccc1Cl [Compound 98] | > 20000 nM |  | 
Cn1c(C#N)ccc1C(=O)NCc1c(F)cccc1Cl [Compound 94] | 340 nM |  | half-life at 3 μM [2]: 42.3 min; microsomal CLint at 3 μM [2]: 32.8 ± 2.2 µL/min/mg
CC(C)n1cccc1C(=O)N[C@@H](C)c1c(F)cccc1Cl [Compound 90] | 520 nM |  | 
Cn1c(Cl)ccc1C(=O)NCc1c(F)cccc1Cl [Compound 78] | 740 nM |  | half-life at 3 μM [2]: 15.4 min; microsomal CLint at 3 μM [2]: 89.8 ± 3 µL/min/mg
CN(Cc1c(F)cccc1Cl)C(=O)c1cccn1C [Compound 88] | > 20000 nM |  | 
C[C@H](NC(=O)c1ccc(C#N)n1C)c1c(F)cccc1Cl [Compound 97] |  |  | half-life at 3 μM [2]: 236 min; microsomal CLint at 3 μM [2]: 5.9 ± 2.5 µL/min/mg
CC(C)(C)c1nnsc1C(=O)NCc1c(F)cccc1Cl [Compound 36] |  | 18000 nM | 
CC(C)n1c(C#N)ccc1C(=O)NCc1c(F)cccc1Cl [Compound 96] | 1400 nM |  | 
CC(C)n1cccc1C(=O)N[C@H](C)c1c(F)cccc1Cl [Compound 91] | > 20000 nM |  | 
CC(c1ccccc1)n1cccc1C(=O)NCc1c(F)cccc1Cl (stereo not drawn) [Compound 87] | > 20000 nM |  | 
O=C(NCc1c(F)cccc1Cl)c1snnc1-c1ccccc1 [Compound 37] |  | > 100000 nM | 
O=C(NCc1c(F)cccc1Cl)c1snnc1C1CCCC1 [Compound 34] |  | 1900 nM | 
Cc1ccn(C(C)C)c1C(=O)NCc1c(F)cccc1Cl [Compound 83] | 7800 nM |  | 
CCn1c(C#N)ccc1C(=O)NCc1c(F)cccc1Cl [Compound 95] | 1900 nM |  | 
CC(NC(=O)c1cccn1C(C)C)c1c(F)cccc1Cl (racemic) [Compound 89] | 2100 nM |  | 
O=C(NCc1c(F)cccc1Cl)c1ccc[nH]1 [Compound 80] | > 20000 nM |  | 
O=C(NCc1cccc2ccccc12)c1snnc1C1CC1 [Compound 45] |  | > 100000 nM | 

Compound | EC50 ([1]; Table 5, pyrrole compounds) | EC50 [1, 3] | further results
O=C(NCc1c(F)cccc1F)c1snnc1C1CC1 [Compound 39] |  | 1500 nM | 
O=C(NCc1c(F)cccc1Cl)c1snnc1C1CCCCC1 [Compound 35] |  | 6000 nM | 
CC(C)n1cccc1C(=O)NCc1c(F)cccc1Cl [Compound 85] | 440 nM |  | 
O=C(NCc1c(F)cccc1Cl)c1cccn1Cc1ccccc1 [Compound 86] | > 20000 nM |  | 
Cn1cccc1C(=O)NCc1c(F)cccc1Cl [Compound 84] | 900 nM |  | half-life at 3 μM [2]: 17.2 min; microsomal CLint at 3 μM [2]: 80.6 ± 4.4 µL/min/mg
Fc1cccc(Cl)c1CNCc1snnc1C1CC1 [Compound 13] |  |  | EC50 ([1]; Table 3, Formula (I-b)): > 100000 nM; necroptosis inhibitory activity in words [1]: inactive
O=C(NCc1ccccc1F)c1snnc1C1CC1 [Compound 40] |  | 1500 nM | 
O=C(NC(=O)c1c(F)cccc1Cl)c1snnc1C1CC1 [Compound 16] |  |  | EC50 ([1]; Table 3, Formula (I-b)): > 100000 nM; necroptosis inhibitory activity in words [1]: inactive
O=C(NCc1c(F)cccc1Cl)c1snnc1C1CCC1 [Compound 33] |  | 600 nM | 
CC(C)n1cc(C#N)cc1C(=O)NCc1c(F)cccc1Cl [Compound 99] | > 20000 nM |  | 
CCn1c(Br)ccc1C(=O)NCc1c(F)cccc1Cl [Compound 93] | 2400 nM |  | 
Cc1cccc(Cl)c1CNC(=O)c1snnc1C1CC1 [Compound 41] |  | 10000 nM | 
O=C(NCc1c(F)cccc1C(F)(F)F)c1snnc1C1CC1 [Compound 44] |  | > 100000 nM | 
Cc1ccn(C)c1C(=O)NCc1c(F)cccc1Cl [Compound 82] | > 20000 nM |  | 
Cc1cc[nH]c1C(=O)NCc1c(F)cccc1Cl [Compound 81] | 4900 nM |  | 
CCCCC(NC(=O)c1cccn1C(C)C)c1c(F)cccc1Cl (racemic) [Compound 92] | > 20000 nM |  | 
